Reference: ChEMBL document CHEMBL1125952, “Prevention of human leukocyte elastase-mediated lung damage by 3-alkyl-4-azetidinones” (1991)

Tests used:
[1] = molecular target: T1, Neutrophil elastase (Homo sapiens) (UniProt P08246); assay: Inhibition of human leukocyte elastase-induced lung hemorrhage in hamster, after 100 ug of compound administered intratracheally.; type: functional, tissue-based
T1 sequence (whole entry): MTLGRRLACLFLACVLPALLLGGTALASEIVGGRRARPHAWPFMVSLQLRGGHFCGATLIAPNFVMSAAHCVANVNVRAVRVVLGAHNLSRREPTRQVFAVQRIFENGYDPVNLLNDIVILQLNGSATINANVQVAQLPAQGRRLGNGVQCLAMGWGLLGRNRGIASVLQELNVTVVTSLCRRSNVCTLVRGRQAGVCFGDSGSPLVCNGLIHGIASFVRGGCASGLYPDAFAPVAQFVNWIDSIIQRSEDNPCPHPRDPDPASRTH

[2] = molecular target: T1, Neutrophil elastase (Homo sapiens); assay: Inhibition of human leukocyte elastase, expressed as biomolecular rate constant.
Cricetinae gen. sp. [3] = assay: Compound at dose 20 ug was tested for percentage inhibition of HLE-induced Lung Hemorrhage in hamsters at 1 hr prior to installation of human leukocyte elastase; type: functional, Cricetulus griseus
Cricetinae gen. sp. [4] = assay: Compound at dose 20 ug was tested for percentage inhibition of HLE-induced Lung Hemorrhage in hamsters at 2 hr prior to installation of human leukocyte elastase; type: functional, Cricetulus griseus
Cricetinae gen. sp. [5] = assay: Compound at dose 20 ug was tested for percentage inhibition of HLE-induced Lung Hemorrhage in hamsters at 3 hr prior to installation of human leukocyte elastase; type: functional, Cricetulus griseus
Cricetinae gen. sp. [6] = assay: Effective dose administered intratracheally required to give 50% inhibition at 30 minutes prior to installation of human leukocyte elastase in hamster lung; type: functional, Cricetulus griseus
Cricetinae gen. sp. [7] = assay: Compound at dose 20 ug was tested for percentage inhibition of HLE-induced Lung Hemorrhage in hamsters at 4 hr prior to installation of human leukocyte elastase; type: functional, Cricetulus griseus

SMILES | inhibition [1] [%] | K obs / 1 [2] [M⁻¹ s⁻¹] | Inhibition (Cricetinae gen. sp. [3]) [%] | Inhibition (Cricetinae gen. sp. [4]) [%] | Inhibition (Cricetinae gen. sp. [5]) [%] | ED50 (Cricetinae gen. sp. [6]) [µg] | Inhibition (Cricetinae gen. sp. [7]) [%]
CC[C@@H]1C(=O)N(S(=O)(=O)c2ccc(C)cc2)[C@H]1C(=O)N(C)CC(=O)O | 74 | 398 |  |  |  |  | 
CC[C@H]1C(=O)N(S(=O)(=O)c2ccc(C)cc2)[C@H]1C(=O)N(C)CC(=O)O | 61 | 110 |  |  |  |  | 
CCC1C(=O)N(C(=O)NCc2ccccc2)C1OCC(=O)O (stereo not given) | 50 | 129 |  |  |  |  | 
CCC1C(=O)N(S(=O)(=O)c2ccc(C)cc2)C1C(=O)N(C)CC(=O)O (cis isomer) | 84 | 165 | 78 | 68 | 60 | 18.7 | 4
CCOC(=O)N1C(=O)C(CC)C1Oc1ccc(C(=O)O)cc1 (trans isomer) |  | 6350 |  |  |  |  | 
CC[C@@H]1C(=O)N(C(=O)NCc2ccccc2)[C@H]1Oc1ccc(C(=O)O)cc1 | 17 | 339 |  |  |  |  | 
CCOC(=O)N1C(=O)C(CC)C1OC(C)C(=O)O (single isomer, unassigned; isomer A) | 71 | 346 |  |  |  |  | 
CC[C@H]1C(=O)N(S(=O)(=O)c2ccc(C)cc2)[C@@H]1C(=O)N(C)CC(=O)O | 99 | 271 |  |  |  |  | 
CCOC(=O)N1C(=O)C(CC)C1OCC(=O)O (cis isomer) | 81 | 796 |  |  |  |  | 
CCOC(=O)N1C(=O)[C@H](CC)[C@H]1OCC(=O)O | 99 | 918 | 100 | 82 | 59 | 3.9 | -14
CC[C@H]1C(=O)N(C(=O)NCc2ccccc2)[C@@H]1Oc1ccc(C(=O)O)cc1 | 2 | 3840 |  |  |  |  | 
CCC1C(=O)N(S(=O)(=O)c2ccc(C)cc2)C1C(=O)O (cis isomer) | 80 | 93 |  |  |  |  | 
CCC1C(=O)N(S(=O)(=O)c2ccc(C)cc2)C1C(=O)OCC(=O)O (cis isomer) [listing 1 of 2 here] |  |  | 66 | 32 | 11 | 24.6 | 30
CCC1C(=O)N(S(=O)(=O)c2ccc(C)cc2)C1C(=O)OCC(=O)O (stereo in doubt) | 14 | 9420 |  |  |  |  | 
CCOC(=O)N1C(=O)C(CC)C1OC(C)C(=O)O (single isomer, unassigned; isomer B) | 81 | 158 |  |  |  |  | 
CC[C@@H]1C(=O)N(S(=O)(=O)c2ccc(C)cc2)[C@@H]1C(=O)N(C)CC(=O)O | 94 | 732 |  |  |  |  | 

SMILES | inhibition [1] [%] | K obs / 1 [2] [M⁻¹ s⁻¹] | Inhibition (Cricetinae gen. sp. [3]) [%] | Inhibition (Cricetinae gen. sp. [4]) [%] | Inhibition (Cricetinae gen. sp. [5]) [%] | ED50 (Cricetinae gen. sp. [6]) [µg] | Inhibition (Cricetinae gen. sp. [7]) [%]
CC[C@H]1C(=O)N(S(=O)(=O)c2ccc(C)cc2)[C@@H]1C(=O)O | 98 | 377 | 78 | 33 | 1 | 3 | 16
CCC1C(=O)N(C(=O)OCc2ccccc2)C1OCC(=O)O (trans isomer) | 51 | 955 |  |  |  |  | 
CCOC(=O)N1C(=O)C(CC)C1OCCCC(=O)O (trans isomer) | 23 | 1250 |  |  |  |  | 
CCOC(=O)N1C(=O)C(CC)C1S(=O)(=O)CC(=O)O (trans isomer) | 70 | 5620 |  |  |  |  | 
CO[C@H]1C(=O)N2C(C(=O)N3CCC[C@H]3C(=O)O)=C(COC(C)=O)CS(=O)(=O)[C@H]12 |  |  | 98 | 85 | 74 | 3.1 | -23
CCOC(=O)N1C(=O)C(CC)C1[S+]([O-])CC(=O)O (stereo not given) | 71 | 1670 |  |  |  |  | 
CCCC1C(=O)N(C(=O)OCC)C1OCC(=O)O (stereo not given) | 88 | 1500 | 83 | 31 | -17 | 6.3 | -2
CCOC(=O)N1C(=O)C(CC)C1OCCC(=O)O (trans isomer) | 31 | 560 |  |  |  |  | 
CCOC(=O)N1C(=O)C(CC)C1OCC(=O)O (trans isomer) [listing 1 of 2 here] | 98 | 467 |  |  |  |  | 
CCOC(=O)N1C(=O)C(CC)C1OCC(=O)O (trans isomer) [listing 2 of 2 here] |  |  | 96 | 63 | 36 | 6.3 | -5
CCC1C(=O)N(C(=O)NCc2ccccc2)C1Oc1ccc(CC(=O)O)cc1 (trans isomer) |  | 2070 |  |  |  |  | 
CCC1C(=O)N(S(=O)(=O)c2ccc(C)cc2)C1C(=O)OCC(=O)O (cis isomer) [listing 2 of 2 here] | 73 | 1550 |  |  |  |  | 
CCOC(=O)N1C(=O)C(CC)C1OCC(=O)NCC(=O)O (stereo not given) | 72 | 1000 |  |  |  |  | 
CCOC(=O)N1C(=O)C(CC)C1SCC(=O)O (trans isomer) | 56 | 1090 |  |  |  |  | 
CCOC(=O)N1C(=O)[C@@H](CC)[C@@H]1OCC(=O)O | 86 | 136 | 92 | 49 | 6 | 11.3 | -3
CCOC(=O)N1C(=O)C(CC)C1Oc1ccc(CC(=O)O)cc1 (trans isomer) |  | 4100 |  |  |  |  | 
